Experimental data as given in US6410704B1 (priority 1991, dated 2002).

Molecular target: herpes protease (HSV-1 UL26 product, Pra) (Human herpesvirus 1, UniProt P10210)
Assay type: biochemical

Chain of herpes protease (HSV-1 UL26 product, Pra) (P10210 whole entry, looked up): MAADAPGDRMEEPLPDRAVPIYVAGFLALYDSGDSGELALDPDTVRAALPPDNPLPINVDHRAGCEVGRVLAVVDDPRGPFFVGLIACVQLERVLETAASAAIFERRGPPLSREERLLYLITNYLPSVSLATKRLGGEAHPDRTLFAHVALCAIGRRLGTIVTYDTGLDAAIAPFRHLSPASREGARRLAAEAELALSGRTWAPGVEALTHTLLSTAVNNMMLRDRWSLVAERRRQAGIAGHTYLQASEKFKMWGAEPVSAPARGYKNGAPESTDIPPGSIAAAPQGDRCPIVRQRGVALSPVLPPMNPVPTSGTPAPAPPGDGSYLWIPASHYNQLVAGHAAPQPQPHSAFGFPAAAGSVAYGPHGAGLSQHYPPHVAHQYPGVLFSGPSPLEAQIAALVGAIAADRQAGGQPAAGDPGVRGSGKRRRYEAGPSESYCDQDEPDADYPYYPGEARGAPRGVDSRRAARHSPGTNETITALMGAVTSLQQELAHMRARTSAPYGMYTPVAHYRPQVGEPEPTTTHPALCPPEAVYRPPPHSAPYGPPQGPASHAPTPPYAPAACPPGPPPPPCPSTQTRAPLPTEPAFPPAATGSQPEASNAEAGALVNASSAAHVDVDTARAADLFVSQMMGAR

SMILES	inhibition of the protease [%]	inhibition of the protease self-cleavage
CC(C)C[C@H](NC(=O)[C@@H](NC(=O)N[C@@H](Cc1ccccc1)C(=O)O)[C@@H]1CCN=C(N)N1)C(=O)N[C@H](C=O)Cc1ccccc1 [chymostatin]	100	–
CCCCCCCCCCCCOS(=O)(=O)[O-].[Na+] [SDS, sodium dodecyl sulphate]	–	100%
O=S(=O)(F)Cc1ccccc1 [Phenylmethansulfonyl fluoride]	–	partially inhibiting
